The record followed here is patent publication US20250340574A1, “MODULATORS OF CYSTIC FIBROSIS TRANSMEMBRANE CONDUCTANCE REGULATOR” (Vertex Pharmaceuticals Incorporated, priority 2022, published 2025).

pEC50: −log10 of the molar value. Where two headings read alike, the source gives them in different places.

The target in test [1] is T1, CFTR (F508del/MF-HBE cells) (Homo sapiens, UniProt P13569, DEL508-508).
T1 construct: human bronchial epithelial (HBE) cells derived from CF subjects heterozygous for F508del and a minimal function CFTR mutation (F508del/MF-HBE); endogenous in cells; host or cells: Primary human bronchial epithelial cells from CF subjects (F508del/MF genotype), differentiated at an air-liquid interface
T1 sequence (P13569 with tags, fused parts or gaps DEL508-508): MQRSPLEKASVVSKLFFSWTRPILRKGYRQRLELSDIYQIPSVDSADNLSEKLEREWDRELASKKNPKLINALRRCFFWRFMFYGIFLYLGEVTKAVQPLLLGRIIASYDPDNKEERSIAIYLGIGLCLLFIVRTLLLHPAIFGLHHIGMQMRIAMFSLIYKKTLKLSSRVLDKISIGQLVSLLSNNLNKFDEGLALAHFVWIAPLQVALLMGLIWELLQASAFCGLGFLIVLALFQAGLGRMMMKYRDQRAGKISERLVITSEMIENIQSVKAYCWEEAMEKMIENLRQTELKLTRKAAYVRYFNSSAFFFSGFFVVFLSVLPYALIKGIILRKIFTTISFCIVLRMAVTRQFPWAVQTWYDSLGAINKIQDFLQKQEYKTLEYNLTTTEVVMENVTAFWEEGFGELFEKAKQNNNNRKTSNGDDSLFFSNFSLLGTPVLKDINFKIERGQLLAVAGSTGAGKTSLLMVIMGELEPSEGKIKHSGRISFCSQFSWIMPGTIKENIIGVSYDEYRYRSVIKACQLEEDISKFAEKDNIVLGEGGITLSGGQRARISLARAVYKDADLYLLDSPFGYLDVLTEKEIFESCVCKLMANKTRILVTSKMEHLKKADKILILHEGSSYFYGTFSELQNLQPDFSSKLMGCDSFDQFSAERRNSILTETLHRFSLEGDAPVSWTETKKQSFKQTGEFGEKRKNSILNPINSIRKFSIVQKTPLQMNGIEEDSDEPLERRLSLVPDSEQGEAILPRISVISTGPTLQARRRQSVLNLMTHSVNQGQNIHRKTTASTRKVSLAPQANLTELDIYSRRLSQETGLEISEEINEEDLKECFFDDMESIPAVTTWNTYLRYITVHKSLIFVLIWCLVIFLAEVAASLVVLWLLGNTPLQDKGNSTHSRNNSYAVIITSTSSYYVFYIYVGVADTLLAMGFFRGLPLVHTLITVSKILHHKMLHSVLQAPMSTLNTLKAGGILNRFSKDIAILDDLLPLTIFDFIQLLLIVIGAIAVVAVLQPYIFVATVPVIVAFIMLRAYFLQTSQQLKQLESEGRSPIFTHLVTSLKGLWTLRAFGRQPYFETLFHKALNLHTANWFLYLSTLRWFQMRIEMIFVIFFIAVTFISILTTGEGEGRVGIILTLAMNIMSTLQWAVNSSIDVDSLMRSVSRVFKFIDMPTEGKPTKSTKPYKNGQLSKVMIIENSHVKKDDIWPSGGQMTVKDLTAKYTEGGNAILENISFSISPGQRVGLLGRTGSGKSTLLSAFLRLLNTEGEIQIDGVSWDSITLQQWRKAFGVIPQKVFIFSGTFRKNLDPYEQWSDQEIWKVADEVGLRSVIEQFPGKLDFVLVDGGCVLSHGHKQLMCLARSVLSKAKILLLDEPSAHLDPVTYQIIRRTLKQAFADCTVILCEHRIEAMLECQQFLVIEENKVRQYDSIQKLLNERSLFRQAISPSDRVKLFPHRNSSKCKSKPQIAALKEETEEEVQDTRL
Description: Ussing chamber assay of CFTR-mediated short-circuit currents, Assay C (0.026 μM to 25 μM, 6 concentrations). The format is cell-based. The conditions noted are these: with 33 nM potentiator and 18 μM Tezacaftor, 20% human serum; for Emax: read-out: C Max activity (%). In short, it runs like this:
(§1)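 Short-circuit current was recorded at 37 °C under voltage clamp (0 mV) with amiloride 30 μM apically, forskolin 20 μM activation, then BPO/GlyH-101/inh-172 (20 μM each) to isolate CFTR current. Before recording, corrector exposure lasted 18–24 h with 18 μM tezacaftor, 20% human serum, and 33 nM (dose–response) or 44 nM (1 μM fixed) potentiator, maintained throughout.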

Test [2] addresses T1, CFTR (F508del/MF-HBE cells). Description: Ussing chamber assay of CFTR-mediated short-circuit currents, Assay D (single concentration of 1 μM). The format is cell-based. To be noted: with 44 nM potentiator and 18 μM Tezacaftor, 20% human serum; for D activity at 1 μM (%): 18-24 hours. In short, it runs like this: as §1

With `Cc1cccc(C)c1-c1nc2nc(c1C)OC[C@@H](CC1(C)CC1)N(Cc1cnc3cc(C(C)(C)C)n(C)c3n1)C(=O)c1cccc(c1)S(=O)(=O)N2` [Compound I-222], in test [1] (18-24 hours), the Emax is above 60%. Besides, in test [1], the pEC50 was above 6.00. Besides, in test [2], the “D activity at 1 μM (%)” value is “+++ (+++ is >60%)”.

On to `Cc1cccc(C)c1-c1cc2nc(n1)NS(=O)(=O)c1cccc(c1)C(=O)N(Cc1cnc3cc(C(C)(C)C)n(C)c3n1)[C@@H](C(C(C)C)C(C)C)CO2` [IV-32], for which, in test [1], the pEC50 is above 6.00 and the Emax is above 60%. In addition, the “D act. at 1 μM (%)” value in test [2] is given as “+++ (+++ is >60%)”.

For `Cc1cccc(C)c1-c1cc2nc(n1)NS(=O)(=O)c1cccc(c1)C(=O)N(Cc1cnc3cc(C(C)(C)C)n(C)c3n1)[C@H](CC(C)(C)C)CO2` [Compound I-239], the Emax in test [1] (18-24 hours) is above 60%. For the same molecule, in test [1], the pEC50 is above 6.00. In addition, the “D activity at 1 μM (%)” value in test [2] is “+++ (+++ is >60%)”.

As to `Cc1cccc(C)c1-c1nc2nc(c1C)OC[C@@H](CC(C)(C)C)N(Cc1ncc3cc(C4CC4)n(C)c3n1)C(=O)c1cccc(c1)S(=O)(=O)N2` [Compound I-265], the Emax in test [1] (18-24 hours) is above 60%. Besides, in test [1], the negative-log EC50 (pEC50) is 5.52 to 6.00. In test [2], the “D activity at 1 μM (%)” value is “+++ (+++ is >60%)”.

In the case of `Cc1cccc(C)c1-c1cc2nc(n1)NS(=O)(=O)c1cccc(c1)C(=O)N(Cc1cnc3oc(COC(C)C)cc3n1)[C@H](CC1(C)CC1)CO2` [IV-18], in test [1], the pEC50 is 5.52 to 6.00 and the Emax was above 60%. In addition, in test [2], the “D act. at 1 μM (%)” value is “+++ (+++ is >60%)”.

With `Cc1cccc(C)c1-c1cc2nc(n1)NS(=O)(=O)c1cccc(c1)C(=O)N(Cc1cnc3oc(-c4ccnn4C)cc3n1)[C@H](CC1(C)CC1)CO2` [IV-30], in test [1], the pEC50 is 4.52 to 5.52 and the Emax is above 60%. The “D act. at 1 μM (%)” value in test [2] is “+++ (+++ is >60%)”.

As to `COc1c2nc(nc1-c1c(C)cccc1C)NS(=O)(=O)c1cccc(c1)C(=O)N(Cc1cnc3cc(C4(C)CC4)n(C)c3n1)[C@H](COC(C)C)CO2` [IV-11], in test [1], the pEC50 is above 6.00 and the Emax is above 60%. For the same molecule, the “D act. at 1 μM (%)” value in test [2] is “+++ (+++ is >60%)”.

As for `Cc1cccc(C)c1-c1cc2nc(n1)NS(=O)(=O)c1cccc(c1)C(=O)N(Cc1cnc3cc(C(C)(C)C)n(C)c3n1)[C@H](COC(C)C)CO2` [Compound I-185], the Emax in test [1] (18-24 hours) was above 60%. For the same molecule, the pEC50 in test [1] was above 6.00. Further, the “D activity at 1 μM (%)” value in test [2] is “+++ (+++ is >60%)”.

As to `Cc1cccc(CC(C)C)c1-c1nc2nc(c1C)OC[C@@H](CC(C)(C)C)N(Cc1ncc3cc(C(C)(C)C)n(C)c3n1)C(=O)c1cccc(c1)S(=O)(=O)N2` (atropisomer, axis not shown) [IV-47], in test [1], the pEC50 was 5.52 to 6.00 and the Emax is above 60%. Moreover, in test [2], the “D act. at 1 μM (%)” value was “+++ (+++ is >60%)”.

With `Cc1cccc(CC(C)C)c1-c1nc2nc(c1C)OC[C@@H](CC(C)(C)C)N(Cc1cnc3oc(C4CC4)cc3n1)C(=O)c1cccc(c1)S(=O)(=O)N2` (atropisomer, axis not shown) [Compound I-137], in test [1] (18-24 hours), the Emax was above 60%. Moreover, the negative-log EC50 (pEC50) in test [1] was above 6.00. Besides, the “D activity at 1 μM (%)” value in test [2] is “+++ (+++ is >60%)”.

Take `Cc1cccc(C(C)C)c1-c1nc2nc(c1C)OC[C@@H](CC(C)(C)C)N(Cc1cnc3oc(C4(C)CC4)cc3n1)C(=O)c1cccc(c1)S(=O)(=O)N2` (atropisomer, axis not shown) [Compound I-213]: the Emax in test [1] (18-24 hours) was above 60%. In test [1], the pEC50 is above 6.00. Further, the “D activity at 1 μM (%)” value in test [2] was “+++ (+++ is >60%)”.

Regarding `Cc1cccc(C)c1-c1nc2nc(c1C)OC[C@@H](COC(C)C)N(Cc1cnc3cc(C4(C)CC4)n(C)c3n1)C(=O)c1cccc(c1)S(=O)(=O)N2` [IV-2], in test [1], the pEC50 was above 6.00 and the Emax was above 60%. For the same molecule, the “D act. at 1 μM (%)” value in test [2] was “+++ (+++ is >60%)”.

For `Cc1cccc(C)c1-c1cc2nc(n1)NS(=O)(=O)c1cccc(c1)C(=O)N(Cc1cnc3oc(C(C)(C)C)cc3n1)[C@H](CC1(C)CCC1)CO2` [IV-5], in test [1], the pEC50 was 5.52 to 6.00 and the Emax is above 60%. Besides, the “D act. at 1 μM (%)” value in test [2] is listed as “+++ (+++ is >60%)”.

Turning to `Cc1cccc(C)c1-c1nc2nc(c1C)OC[C@@H](CC(C)(C)C)N(Cc1cnc3cc(C(C)C)n(C)c3n1)C(=O)c1cccc(c1)S(=O)(=O)N2` [Compound I-168], the Emax in test [1] (18-24 hours) is above 60%. Also, the pEC50 in test [1] is above 6.00. Also, the “D activity at 1 μM (%)” value in test [2] is given as “+++ (+++ is >60%)”.

As to `Cc1cccc(C)c1-c1cc2nc(n1)NS(=O)(=O)c1cccc(c1)C(=O)N(Cc1cnc3oc(CC(C)C)cc3n1)[C@H](CC1(C)CC1)CO2` [IV-24, (11R)-6-(2,6-dimethylphenyl)-12-[(6-isobutylfuro[2,3-b]pyrazin-2-yl)methyl]-11-[(1-methylcyclopropyl)methyl]-2,2-dioxo-9-oxa-2λ^6-thia-3,5,12,19-tetrazatricyclo[12.3.1.14,8]nonadeca-1(18),4(19),5,7,14,16-hexaen-13-one], in test [1], the negative-log EC50 (pEC50) was 4.52 to 5.52 and the Emax was above 60%. Besides, in test [2], the “D act. at 1 μM (%)” value is recorded as “+++ (+++ is >60%)”.

Regarding `Cc1cccc(CC(C)C)c1-c1nc2nc(c1C)OC[C@@H](CC(C)(C)C)N(Cc1cnc3cc(C4(C)CC4)n(C)c3n1)C(=O)c1cccc(c1)S(=O)(=O)N2` (atropisomer, axis not shown) [IV-19], in test [1], the pEC50 is above 6.00 and the Emax is above 60%. The “D act. at 1 μM (%)” value in test [2] was “+++ (+++ is >60%)”.

Take `Cc1cccc(C)c1-c1cc2nc(n1)NS(=O)(=O)c1cccc(c1)C(=O)N(Cc1ncc3cc(C4CC4)n(C)c3n1)[C@H](CC13CC(C1)C3)CO2` [Compound I-264]: in test [1] (18-24 hours), the Emax was above 60%. Moreover, the pEC50 in test [1] is 5.52 to 6.00. Further, the “D activity at 1 μM (%)” value in test [2] is “+++ (+++ is >60%)”.
